What all share (type): functional
In assay [1] the test system is Tetranychus cinnabarinus. Briefly: Acaricidal activity against Tetranychus cinnabarinus (carmine spider mite) infected kidney bean leaf assessed as mortality at 10 mg/l measured after 48 hr in greenhouse conditions relative to control.
Assay [2] relates to Tetranychus cinnabarinus. Put plainly: Acaricidal activity against Tetranychus cinnabarinus (carmine spider mite) infected kidney bean leaf assessed as mortality at 40 mg/l measured after 48 hr in greenhouse conditions relative to control.
For assay [3], the system named is Tetranychus cinnabarinus. Put plainly: Acaricidal activity against Tetranychus cinnabarinus (carmine spider mite) infected kidney bean leaf assessed as mortality at 600 mg/l measured after 48 hr in greenhouse conditions relative to control.
Assay [4] deals with Tetranychus cinnabarinus. Put plainly: Acaricidal activity against Tetranychus cinnabarinus (carmine spider mite) infected kidney bean plant assessed as mortality at 100 g a.i./ha measured after 7 days in field conditions relative to control. The conditions noted are these: 168 h.
Assay [5] concerns Tetranychus cinnabarinus. Briefly: Acaricidal activity against Tetranychus cinnabarinus (carmine spider mite) infected kidney bean plant assessed as mortality at 100 g a.i./ha measured after 21 days in field conditions relative to control. The conditions noted are these: 504 h.
The test system of assay [6] is Tetranychus cinnabarinus. Briefly: Acaricidal activity against Tetranychus cinnabarinus (carmine spider mite) infected kidney bean plant assessed as mortality at 50 g a.i./ha measured after 14 days in field conditions relative to control. The note with it: 336 h.
Assay [7] relates to Tetranychus cinnabarinus. Put plainly: Acaricidal activity against Tetranychus cinnabarinus (carmine spider mite) infected kidney bean plant assessed as mortality at 100 g a.i./ha measured after 3 days in field conditions relative to control. The conditions noted are these: 72 h.
In assay [8] the test system is Tetranychus cinnabarinus. Put plainly: Acaricidal activity against Tetranychus cinnabarinus (carmine spider mite) infected kidney bean plant assessed as mortality at 100 g a.i./ha measured after 14 days in field conditions relative to control. The conditions noted are these: 336 h.
Assay [9] relates to Tetranychus cinnabarinus. Put plainly: Acaricidal activity against Tetranychus cinnabarinus (carmine spider mite) infected kidney bean plant assessed as mortality at 50 g a.i./ha measured after 7 days in field conditions relative to control. The conditions noted are these: 168 h.
Assay [10] concerns Tetranychus cinnabarinus. Briefly: Acaricidal activity against Tetranychus cinnabarinus (carmine spider mite) infected kidney bean plant assessed as mortality at 50 g a.i./ha measured after 21 days in field conditions relative to control. The note with it: 504 h.
Assay [11] concerns Tetranychus cinnabarinus. Briefly: Acaricidal activity against Tetranychus cinnabarinus (carmine spider mite) infected kidney bean plant assessed as mortality at 50 g a.i./ha measured after 3 days in field conditions relative to control. The conditions noted are these: 72 h.
The test system of assay [12] is Tetranychus cinnabarinus. Put plainly: Acaricidal activity against Tetranychus cinnabarinus (carmine spider mite) infected kidney bean plant assessed as mortality at 200 g a.i./ha measured after 3 days in field conditions relative to control. The conditions noted are these: 72 h.
For assay [13], the system named is Tetranychus cinnabarinus. Briefly: Acaricidal activity against Tetranychus cinnabarinus (carmine spider mite) infected kidney bean plant assessed as mortality at 200 g a.i./ha measured after 21 days in field conditions relative to control. The note with it: 504 h.
The subject of assay [14] is Tetranychus cinnabarinus. Put plainly: Acaricidal activity against Tetranychus cinnabarinus (carmine spider mite) infected kidney bean plant assessed as mortality at 200 g a.i./ha measured after 14 days in field conditions relative to control. The note with it: 336 h.
The subject of assay [15] is Tetranychus cinnabarinus. Put plainly: Acaricidal activity against Tetranychus cinnabarinus (carmine spider mite) infected kidney bean plant assessed as mortality at 200 g a.i./ha measured after 7 days in field conditions relative to control. The note with it: 168 h.

Each structure is given as a SMILES string.

One may read the mortality as the share of the test organisms that died. Turning to `CO/C=C(/C(=O)OC)c1ccccc1COc1cc(C(F)(F)F)nc(N2CCOCC2)n1`, the mortality at 10 µg/mL in the assay on Tetranychus cinnabarinus [1] came out at 0%. In the assay with Tetranychus cinnabarinus [2], the mortality at 40 µg/mL stood at 70%.
For `CO/C=C(/C(=O)OC)c1ccccc1COc1cc(C(F)(F)F)nc(OC(C)C)n1`, in the assay on Tetranychus cinnabarinus [3], the mortality at 600 µg/mL stood at 100%. Besides, the mortality at 100 g/ha was 88% with Tetranychus cinnabarinus [4], 97.9% in the assay with Tetranychus cinnabarinus [5], 100% in the assay on Tetranychus cinnabarinus [7] and 90.4% in the assay on Tetranychus cinnabarinus [8]. Besides, the mortality at 10 µg/mL with Tetranychus cinnabarinus [1] is 95%. Moreover, the mortality at 40 µg/mL with Tetranychus cinnabarinus [2] was 100%. Further, the mortality at 50 g/ha in the assay with Tetranychus cinnabarinus [6] is 93.2%; with Tetranychus cinnabarinus [9], 77.6%; in the assay with Tetranychus cinnabarinus [10], 98.2%; with Tetranychus cinnabarinus [11], 100%.
With `CO/C=C(/C(=O)OC)c1ccccc1COc1cc(C(F)(F)F)nc(Nc2ccccc2)n1`, the mortality at 600 µg/mL in the assay on Tetranychus cinnabarinus [3] stood at 100%. The mortality at 100 g/ha is 53.1% with Tetranychus cinnabarinus [4], 94.9% in the assay with Tetranychus cinnabarinus [5], 78.3% with Tetranychus cinnabarinus [7] and 91.8% in the assay with Tetranychus cinnabarinus [8]. Besides, the mortality at 200 g/ha came out at 92.2% in the assay with Tetranychus cinnabarinus [12], 100% with Tetranychus cinnabarinus [13], 100% with Tetranychus cinnabarinus [14] and 96.4% in the assay with Tetranychus cinnabarinus [15]. Besides, in the assay with Tetranychus cinnabarinus [1], the mortality at 10 µg/mL amounted to 85%. Also, the mortality at 40 µg/mL with Tetranychus cinnabarinus [2] is 100%. Moreover, the mortality at 50 g/ha with Tetranychus cinnabarinus [6] came out at 87.2%; with Tetranychus cinnabarinus [9] it was 65.3%; in the assay with Tetranychus cinnabarinus [10] it was 57.5%; in the assay on Tetranychus cinnabarinus [11] it was 62.3%.
Turning to `CNC(=O)N(OC)c1ccccc1COc1cc(C(F)(F)F)nc(Nc2ccccc2)n1`, in the assay on Tetranychus cinnabarinus [3], the mortality at 600 µg/mL came out at 0%. Moreover, the mortality at 10 µg/mL in the assay on Tetranychus cinnabarinus [1] was determined as 0%. For the same compound, the mortality at 40 µg/mL in the assay on Tetranychus cinnabarinus [2] worked out at 0%.
Turning to `CO/N=C(/C(=O)OC)c1ccccc1COc1cc(C(F)(F)F)nc(Nc2ccccc2)n1`, the mortality at 600 µg/mL in the assay on Tetranychus cinnabarinus [3] was 100%. In addition, the mortality at 10 µg/mL with Tetranychus cinnabarinus [1] amounted to 0%. The mortality at 40 µg/mL in the assay with Tetranychus cinnabarinus [2] came to 0%.
With `CO/C=C(/C(=O)OC)c1ccccc1COc1cc(C(F)(F)F)nc(NC2CCCCC2)n1`, the mortality at 10 µg/mL in the assay on Tetranychus cinnabarinus [1] turned out to be 70%. For the same compound, in the assay on Tetranychus cinnabarinus [2], the mortality at 40 µg/mL was 100%.
The corresponding values for `CCNc1nc(OCc2ccccc2/C(=C\OC)C(=O)OC)cc(C(F)(F)F)n1` are 0% and 0%.
With `CO/C=C(/C(=O)OC)c1ccccc1COc1cc(C2CC2)nc(Nc2ccccc2)n1`, the mortality at 600 µg/mL with Tetranychus cinnabarinus [3] was 90%. Moreover, the mortality at 10 µg/mL in the assay with Tetranychus cinnabarinus [1] was determined as 0%. Besides, the mortality at 40 µg/mL in the assay with Tetranychus cinnabarinus [2] was found to be 0%.
Take `CO/C=C(/C(=O)OC)c1ccccc1COc1cc(C(F)(F)F)nc(NC2CC2)n1`: the mortality at 10 µg/mL in the assay with Tetranychus cinnabarinus [1] turned out to be 0%. Further, in the assay on Tetranychus cinnabarinus [2], the mortality at 40 µg/mL stood at 0%.
On to `CO/C=C(/C(=O)OC)c1ccccc1COc1nc(Nc2ccccc2)nc(C)c1C`, for which the mortality at 600 µg/mL in the assay on Tetranychus cinnabarinus [3] was 0%. The mortality at 10 µg/mL in the assay with Tetranychus cinnabarinus [1] is 0%. The mortality at 40 µg/mL with Tetranychus cinnabarinus [2] was 0%.
`CCN(CC)c1nc(OCc2ccccc2/C(=C\OC)C(=O)OC)cc(C(F)(F)F)n1`: the mortality at 10 µg/mL in the assay with Tetranychus cinnabarinus [1] is 21%. The mortality at 40 µg/mL in the assay with Tetranychus cinnabarinus [2] stood at 65%.
The corresponding values for `CO/C=C(/C(=O)OC)c1ccccc1COc1cc(C(F)(F)F)nc(NCc2ccccc2)n1` are 28% and 65%.
In the same order, the values of `CO/C=C(/C(=O)OC)c1ccccc1COc1cc(C(F)(F)F)nc(NC(C)C)n1` are 64% and 95%.
In the same order, the values of `CO/C=C(/C(=O)OC)c1ccccc1COc1cc(C(F)(F)F)nc(N2CCCCC2)n1` are 0% and 0%.
Turning to `COC(=O)N(OC)c1ccccc1COc1cc(C(F)(F)F)nc(Nc2ccccc2)n1`, in the assay with Tetranychus cinnabarinus [3], the mortality at 600 µg/mL came out at 0%. Further, the mortality at 10 µg/mL in the assay on Tetranychus cinnabarinus [1] was found to be 0%. Moreover, in the assay with Tetranychus cinnabarinus [2], the mortality at 40 µg/mL stood at 0%.
On to `CNc1nc(OCc2ccccc2/C(=C\OC)C(=O)OC)cc(C(F)(F)F)n1`, for which the mortality at 10 µg/mL with Tetranychus cinnabarinus [1] came to 0%. Also, the mortality at 40 µg/mL with Tetranychus cinnabarinus [2] was determined as 0%.
Take `CO/C=C(/C(=O)OC)c1ccccc1COc1cc(C(F)(F)F)nc(N(C)C)n1`: in the assay on Tetranychus cinnabarinus [1], the mortality at 10 µg/mL was 0%. Besides, in the assay on Tetranychus cinnabarinus [2], the mortality at 40 µg/mL turned out to be 0%.
As to `CO/C=C(/C(=O)OC)c1ccccc1COc1cc(C(F)(F)F)nc(NCc2ccccc2Cl)n1`, the mortality at 10 µg/mL with Tetranychus cinnabarinus [1] worked out at 32%. Also, the mortality at 40 µg/mL in the assay with Tetranychus cinnabarinus [2] was 81%.
For `CNC(=O)/C(=N/OC)c1ccccc1COc1cc(C(F)(F)F)nc(Nc2ccccc2)n1`, the mortality at 600 µg/mL with Tetranychus cinnabarinus [3] came out at 0%. Also, in the assay on Tetranychus cinnabarinus [1], the mortality at 10 µg/mL was 0%. In the assay on Tetranychus cinnabarinus [2], the mortality at 40 µg/mL amounted to 0%.
Regarding `CO/C=C(/C(=O)OC)c1ccccc1COc1cc(C)nc(Nc2ccccc2)n1`, the mortality at 600 µg/mL with Tetranychus cinnabarinus [3] is 90%. In addition, the mortality at 10 µg/mL with Tetranychus cinnabarinus [1] is 0%. The mortality at 40 µg/mL in the assay on Tetranychus cinnabarinus [2] worked out at 0%.
